From paper PMC2829070 (PLoS Pathogens, 2010)
Where “and” joins values, the source holds several entries; their conditions need not be identical. Identical values can stand only once.

What was measured:
[1] = system: HN30408cl7 (H5N1); type: in vivo, BALB/c mice; settings: 21 days
[2] = system: Ind3006 (H5N1); type: in vivo, BALB/c mice; settings: 21 days
[3] = system: HN30408cl7 (H5N1); parameters: species or system BALB/c mice; Virus titers in Lungs, Day 6 / Virus titers in Lungs, Day 9 / Virus titers in Brain, Day 9: unit not given here; settings: mouse, in vivo
[4] = system: Ind3006 (H5N1); parameters: species or system BALB/c mice; Virus titers in Lungs, Day 6 / Virus titers in Brain, Day 6: unit not given here; settings: mouse, in vivo
[5] = system: HN30408cl7 (H5N1); parameters: species or system BALB/c mice; settings: mouse, in vivo
[6] = system: HN30408cl7 (H5N1); parameters: species or system BALB/c mice; Virus titer in Lungs, Day 3 / Virus titer in Lungs, Day 6: unit not given here; settings: mouse, in vivo
[7] = system: NA of A/New Caledonia/20/99 (H1N1); type: binding, influenza A virus (H1N1)
[8] = system: NA of A/Panama/2007/99 (H3N2); type: binding, influenza A virus (H3N2)
[9] = system: NA of B/Mie/1/93; type: binding, influenza B virus
[10] = target: NA of Ind3006 (A/Indonesia/UT3006/05, H5N1) (Influenza A virus, UniProt I6YWY9); test: biochemical

## CCOC(=O)C1=C[C@@H](OC(CC)CC)[C@H](NC(C)=O)[C@@H](N)C1 [Oseltamivir phosphate]
[1]
  mice protected from lethal infection: less than half
  mice saved from lethal infection: 90%
[2]
  mice protected from lethal infection: less than half
  mice saved from lethal infection: 50%
[3]
  Virus titers in Brain, Day 3: <1.6
  Virus titers in Brain, Day 9: 4.8 and 4.7±0.4 and 3.7 and 5.1
  Virus titers in Lungs, Day 3: 6.0±0.1 and 5.0±0.6 and 6.2±0.2
  Virus titers in Lungs, Day 6: 5.2±0.1 and 5.5±0.4 and 3.8±0.5 and 6.4±0.6
  Virus titers in Lungs, Day 9: 4.9±1.8 and 4.7±0.6 and 4.7±1.4 and 6.1
[4]
  Virus titers in Brain, Day 3: <1.6
  Virus titers in Brain, Day 6: 3.1±0.3 and 2.6±0.1 and 3.2±1.2 and 3.3±0.9
  Virus titers in Brain, Day 9: <1.6
  Virus titers in Lungs, Day 3: 7.5±0.1 and 7.2±0.1 and 7.1±0.2
  Virus titers in Lungs, Day 6: 7.5±0.2 and 7.4±0.2 and 7.4±0.1 and 7.2±0.1
  Virus titers in Lungs, Day 9: <1.7
[5]
  prophylactic efficacy (survival): limited
[6]
  Virus titer in Brain, Day 3: <1.6
  Virus titer in Brain, Day 6: 2.6 and <1.6
  Virus titer in Lungs, Day 3: 5.5±0.7 and 4.3±1.9 and 3.2±2.9 and 5.8±0.8
  Virus titer in Lungs, Day 6: 5.6±0.4 and 6.1±0.2 and 6.0±0.0 and 6.0±0.4

## Peramivir
[7]
  Slope difference: -456.52
  Slope of the dissociation curve: 43.10
[8]
  Slope difference: -48.81
  Slope of the dissociation curve: 0.19
[9]
  Slope difference: -773.42
  Slope of the dissociation curve: 180.66

## [H]/N=C(\N)N[C@H]1C=C(C(=O)O)O[C@@H]([C@H](OC)[C@H](O)COC(=O)CCCCCCC)[C@@H]1NC(C)=O [CS-8958]
[1]
  mice protected from lethal infection: 90%
[2]
  mice protected from lethal infection: 70%
[3]
  Virus titers in Brain, Day 3: <1.6
  Virus titers in Brain, Day 6: 2.0±0.3 and <1.6
[4]
  Virus titers in Brain, Day 3: <1.6
  Virus titers in Brain, Day 6: <1.6
  Virus titers in Brain, Day 9: <1.6
  Virus titers in Lungs, Day 6: 7.2±0.1 and 4.5±1.4
  Virus titers in Lungs, Day 9: <1.7
[5]
  prophylactic efficacy (survival): limited
  protection from the lethal infection (prophylaxis): significantly protected
[6]
  Virus titer in Brain, Day 3: <1.6

## CCC(CC)O[C@@H]1C=C(C(=O)O)C[C@H](N)[C@H]1NC(C)=O [Oseltamivir carboxylate]
[10]
  IC50: 10 nM
[7]
  Slope of the dissociation curve: 173.34
[8]
  Slope of the dissociation curve: 6.97
[9]
  Slope of the dissociation curve: 381.21
  recovery of NA activity: almost fully recovered

## CC(=O)N[C@H]1[C@H]([C@H](O)[C@H](O)CO)OC(C(=O)O)=C[C@@H]1N=C(N)N [Zanamivir]
[10]
  IC50: 0.07 nM
[7]
  Slope of the dissociation curve: 140.10
[8]
  Slope of the dissociation curve: 2.10
[9]
  Slope of the dissociation curve: 184.10
